Patent publication US12729192B2, “CDK9 inhibitor and use thereof” (PHARMABLOCK SCIENCES (NANJING), INC., priority 2020, dated 2026)

Experiments:
[1] = biological target: T1, CDK7 (Homo sapiens, UniProt P50613); experiment: CDK7 kinase activity inhibition (ADP-Glo); assay type: biochemical; settings: 10 μM ATP, 2 h at room temperature
T1 construct: purchased Carna Biosciences, Inc
Method: (§1) CDK9 kinase was manufactured by the company or commercially available. CDK1, CDK2 and CDK7 were purchased from Carna Biosciences, Inc. ADP-Glo™ kit was purchased from Promega Corporation. Dithiothreitol (DTT), Tween-20, dimethylsulfoxide (DMSO), bovine serum albumin (BSA) and Tris base were obtained from Sigma at the available highest level of purity.
(§2) General procedures for CDK inhibition determination: The determination was performed in a buffer consisting of 50 μM DTT, 0.1% BSA, 40 mM Tris-HCl pH=7.5 and 20 mM MgCl2. The compound dissolved in DMSO and CDK enzymes were diluted with the buffer. 1 μL of the compound solution in 5% DMSO and 2 μL of the CDK enzyme solution were added to a white low-volume 384-well microtiter plate and incubated for 20 min at room temperature. Ultra pure ATP and the substrate polypeptide (purchased from GenScript Biotech Corporation) were diluted together into the buffer and added to a mixed solution of the compound and the enzyme, 2 μL per well. They were incubated for 2 h at room temperature.
(§3) After the reaction was completed, 5 μL of ADP-Glo™ reagent was added to each well and incubated for 40 min at room temperature, and then 10 μL of test reagent was added to each well and incubated for 30 mi at room temperature. Chemical luminescence values were measured by using a Tecan (Männedorf, Switzerland) multifunctional plate reader Spark for plate reading. The IC50 value of the inhibitor was obtained by fitting the chemical luminescence intensity ratio in the S-shaped dosage reaction curve using Prism 7 (La Jolla, 15 CA) relative to the concentration of the inhibitor.

[2] = biological target: CDK9 (Homo sapiens, UniProt P50750); experiment: CDK9 kinase activity inhibition (ADP-Glo); assay type: biochemical; settings: 10 μM ATP, 2 h at room temperature
Method: as §1, §2, §3

[3] = biological target: T2, CDK2 (Homo sapiens, UniProt P24941); experiment: CDK2 kinase activity inhibition (ADP-Glo); assay type: biochemical; settings: 10 μM ATP, 2 h at room temperature
T2 construct: purchased Carna Biosciences, Inc
Method: as §1, §2, §3

[4] = biological target: T3, CDK1 (Homo sapiens, UniProt P06493); experiment: CDK1 kinase activity inhibition (ADP-Glo); assay type: biochemical; settings: 50 μM ATP, 2 h at room temperature
T3 construct: purchased Carna Biosciences, Inc
Method: as §1, §2, §3

[5] = tested on: MOLM-13 cells; experiment: Tumor cell proliferation inhibition experiment (CellTiter-Glo); assay type: cell-based; settings: Homo sapiens; acute myeloid leukemia cell line MOLM-13; 16 h incubation; CellTiter-Glo; read-out: MOLM-13 (nM) IC50, cell proliferation inhibition
Excerpt: An acute myeloid leukemia (AML) cell line (MOLM-13) was purchased from NANJING COBIOER BIOSCIENCES CO., LTD. An RPMI1640 medium and a penicillin-streptomycin double-antibody were purchased from ThermoFisher (Waltham, MA, USA). Certified fetal bovine serum (FBS) was purchased from Biological Industries (Israel). A Corning 384-well cell culture plate was purchased from CORNING (USA). Cell-Titer Glo® was purchased from Promega Corporation (Madison, WI, USA).
To evaluate the ability of the synthetic compound to inhibit the proliferation of MOLM-13 cells, MOLM-13 cells at an exponential growth stage were inoculated at a density of 500,000 cell/mL in the RPMI1640 medium containing 20% bovine serum and 1% penicillin-streptomycin double-antibody, and the 384-well plate contained 20 μL per well and placed overnight in an 37° C., 5% CO2 incubator. Compound powder was dissolved in DMSO to prepare a storage mother liquor with a concentration of 2 mM, and 12 dilutions with three-fold gradient concentrations were further prepared. 1 μL of gradient-diluted DMSO solution was added to 99 μL of cell culture medium (the final maximum concentration of the compound in the assay was 10 uM and the final concentration of DMSO was 0.5%). 20 μL of compound solution in the medium was added at gradients to each cell-coated test well of the 384-well plate. After the compound solution was added, the 384-well plate was incubated for 16 h in a 37° C., 5% CO2 incubator. Cell viability was determined by quantifying ATPs present in test wells using the CellTiter-Glo kit from Promega (Madison, WI, USA). After 20 minutes of incubation, readings were obtained under a chemical luminescence procedure using Tecan's Spark multifunctional plate reader. The concentration (IC50 value) of the compound at which the cell survival rate was inhibited by 50% was determined using an S-shaped dosage response model (variable slope, four parameters) in Prism 7 (LaJolla, CA).

T3 sequence (P06493 whole entry): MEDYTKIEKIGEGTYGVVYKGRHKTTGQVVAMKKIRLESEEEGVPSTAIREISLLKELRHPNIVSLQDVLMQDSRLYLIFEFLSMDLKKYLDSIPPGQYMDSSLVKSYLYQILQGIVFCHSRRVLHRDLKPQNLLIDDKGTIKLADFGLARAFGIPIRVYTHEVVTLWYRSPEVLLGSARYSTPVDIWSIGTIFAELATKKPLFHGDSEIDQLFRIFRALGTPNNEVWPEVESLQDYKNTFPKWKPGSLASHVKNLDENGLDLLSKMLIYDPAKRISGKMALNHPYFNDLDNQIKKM
T3 sequence (P14635 whole entry partner): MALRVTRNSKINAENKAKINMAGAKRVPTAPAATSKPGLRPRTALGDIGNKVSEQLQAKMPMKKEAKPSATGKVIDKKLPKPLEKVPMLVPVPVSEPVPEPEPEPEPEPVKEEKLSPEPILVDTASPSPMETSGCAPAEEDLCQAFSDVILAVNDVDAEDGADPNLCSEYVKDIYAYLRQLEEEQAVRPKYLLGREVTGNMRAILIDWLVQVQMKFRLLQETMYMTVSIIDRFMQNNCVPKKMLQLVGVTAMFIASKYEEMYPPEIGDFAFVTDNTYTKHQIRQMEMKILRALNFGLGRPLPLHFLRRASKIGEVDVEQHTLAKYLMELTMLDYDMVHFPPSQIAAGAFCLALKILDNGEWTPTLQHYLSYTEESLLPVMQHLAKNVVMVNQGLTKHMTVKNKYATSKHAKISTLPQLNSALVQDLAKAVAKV
Chain of CDK9 (P50750 whole entry): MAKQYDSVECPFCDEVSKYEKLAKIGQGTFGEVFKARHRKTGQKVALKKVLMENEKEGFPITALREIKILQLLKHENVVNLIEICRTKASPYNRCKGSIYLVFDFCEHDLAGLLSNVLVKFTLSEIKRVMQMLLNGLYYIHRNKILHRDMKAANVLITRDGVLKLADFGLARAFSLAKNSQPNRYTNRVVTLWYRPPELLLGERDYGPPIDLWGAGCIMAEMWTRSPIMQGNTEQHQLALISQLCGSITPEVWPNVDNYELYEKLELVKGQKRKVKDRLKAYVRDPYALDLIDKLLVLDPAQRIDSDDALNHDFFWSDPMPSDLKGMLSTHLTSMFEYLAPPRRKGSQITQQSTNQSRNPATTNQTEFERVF
Chain of CDK9 (O60563 whole entry partner): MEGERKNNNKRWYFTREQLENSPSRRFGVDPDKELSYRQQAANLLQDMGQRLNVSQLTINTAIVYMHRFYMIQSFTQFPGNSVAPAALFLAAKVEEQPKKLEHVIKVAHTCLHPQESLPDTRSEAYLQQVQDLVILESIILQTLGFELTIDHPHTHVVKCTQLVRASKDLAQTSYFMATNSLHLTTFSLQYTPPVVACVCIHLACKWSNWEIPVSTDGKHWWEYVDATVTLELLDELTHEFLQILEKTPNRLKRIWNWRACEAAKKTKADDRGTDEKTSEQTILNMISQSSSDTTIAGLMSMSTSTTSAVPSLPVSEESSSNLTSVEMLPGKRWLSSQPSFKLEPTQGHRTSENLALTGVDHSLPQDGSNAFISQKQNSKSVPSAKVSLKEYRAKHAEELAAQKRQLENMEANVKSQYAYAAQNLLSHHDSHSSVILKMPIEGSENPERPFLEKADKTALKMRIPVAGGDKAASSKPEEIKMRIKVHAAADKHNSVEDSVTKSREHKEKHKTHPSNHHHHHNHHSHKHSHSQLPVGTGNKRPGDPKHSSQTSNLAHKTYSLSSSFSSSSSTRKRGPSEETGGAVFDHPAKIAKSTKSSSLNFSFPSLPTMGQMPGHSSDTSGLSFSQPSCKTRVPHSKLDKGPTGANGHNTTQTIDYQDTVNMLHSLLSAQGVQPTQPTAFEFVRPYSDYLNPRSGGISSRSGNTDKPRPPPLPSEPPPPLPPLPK
T1 sequence (P50613 whole entry): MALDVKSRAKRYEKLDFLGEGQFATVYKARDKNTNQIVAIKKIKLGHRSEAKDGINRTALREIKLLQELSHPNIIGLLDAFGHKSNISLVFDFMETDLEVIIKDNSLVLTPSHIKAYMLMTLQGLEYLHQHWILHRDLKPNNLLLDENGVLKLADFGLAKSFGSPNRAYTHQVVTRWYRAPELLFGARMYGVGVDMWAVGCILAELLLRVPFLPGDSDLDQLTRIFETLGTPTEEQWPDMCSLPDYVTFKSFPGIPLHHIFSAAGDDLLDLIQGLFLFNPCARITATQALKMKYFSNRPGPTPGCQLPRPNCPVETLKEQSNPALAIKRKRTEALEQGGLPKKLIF
T1 sequence (P51946 whole entry partner): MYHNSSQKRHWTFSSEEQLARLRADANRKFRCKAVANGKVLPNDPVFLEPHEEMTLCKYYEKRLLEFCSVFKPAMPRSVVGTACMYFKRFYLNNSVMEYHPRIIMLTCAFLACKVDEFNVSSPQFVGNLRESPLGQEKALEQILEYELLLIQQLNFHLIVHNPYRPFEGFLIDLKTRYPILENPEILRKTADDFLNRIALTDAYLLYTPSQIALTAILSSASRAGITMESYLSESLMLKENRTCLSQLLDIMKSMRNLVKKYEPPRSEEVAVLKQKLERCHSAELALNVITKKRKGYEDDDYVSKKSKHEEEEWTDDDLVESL
T1 sequence (P51948 whole entry partner): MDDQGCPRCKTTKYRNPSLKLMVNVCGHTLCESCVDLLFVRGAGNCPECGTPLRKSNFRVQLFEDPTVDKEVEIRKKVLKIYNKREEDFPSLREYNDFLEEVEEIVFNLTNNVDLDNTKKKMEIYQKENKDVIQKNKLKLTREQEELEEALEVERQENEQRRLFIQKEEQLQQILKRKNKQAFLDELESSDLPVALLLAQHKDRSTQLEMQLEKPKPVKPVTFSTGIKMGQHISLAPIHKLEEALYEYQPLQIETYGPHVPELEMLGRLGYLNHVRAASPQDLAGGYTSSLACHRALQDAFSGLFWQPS

IC50 [1] [nM]	IC50 [2] [nM]	IC50 [3] [nM]	IC50 [4] [nM]	IC50 [5] [nM]	Structure (SMILES)
8380	8.9	2590	8730		CC(=O)NC[C@H]1CCC(F)(F)CN1C(=O)c1nc(Nc2cc(C)ccn2)ccc1C [Compound 8, (R)—N-((5,5-difluoro-1-(3-methyl-6-((4-methylpyridin-2-yl)amino)pyridine-2-carbonyl)piperidin-2-yl)methyl)acetamide]
> 10000	7.8	8450	> 10000		COc1ccnc(Nc2ccc(C)c(C(=O)N3CC(F)(F)CC[C@@H]3CNC(C)=O)n2)c1 [Compound 9, (R)—N-((5,5-difluoro-1-(6-((4-methoxypyridin-2-yl)amino)-3-methylpyridine-2-carbonyl)piperidin-2-yl)methyl)acetamide]
9860	361	> 10000	> 10000		COc1cc(Nc2ccc(C)c(C(=O)N3CC(F)(F)CC[C@@H]3CNC(C)=O)n2)ncc1Cl [Compound 10, (R)—N-((1-(6-((5-chloro-4-methoxypyridin-2-yl)amino)-3-methylpyridine-2-carbonyl)-5,5-difluoropiperidin-2-yl)methyl)acetamide]
> 10000	4.3	12	503		CC(=O)NC[C@H]1CCC(F)(F)CN1C(=O)c1nc(Nc2cc(C3CC(F)(F)C3)[nH]n2)ccc1C [Compound 15, (R)—N-((1-(6-((5-(3,3-difluorocyclobutyl)-1H-pyrazol-3-yl)amino)-3-methylpyridine-2-carbonyl)-5,5-difluoropiperidin-2-yl)methyl)acetamide]
	19.2	2870	> 10000		CC(=O)NC[C@H]1CCC(F)(F)CN1C(=O)c1nc(Nc2cc(C(C)(C)C)ccn2)ccc1C [Compound 17, (R)—N-((1-(6-((4-(t-butyl)pyridin-2-yl)amino)-3-methylpyridine-2-carbonyl)-5,5-difluoropiperidin-2-yl)methyl)acetamide]
	35	> 10000	> 10000		CC(=O)NC[C@H]1CCC(F)(F)CN1C(=O)c1nc(Nc2ccccn2)ccc1C [Compound 22, (R)—N-((5,5-difluoro-1-(3-methyl-6-(pyridin-2-ylamino)pyridine-2-carbonyl)piperidin-2-yl)methyl)acetamide]
	9.4	1260		133	CC(=O)NC[C@H]1CCC(F)(F)CN1C(=O)c1nc(Nc2cc(CF)ccn2)ccc1C [Compound 28, (R)—N-((5,5-difluoro-1-(6-((4-(fluoromethyl)pyridin-2-yl)amino)-3-methylpyridine-2-carbonyl)piperidin-2-yl)methyl)acetamide]
7030	3.7	180	1470		Cc1ccc(Nc2cc(C#N)ccn2)nc1C(=O)N1CC(F)(F)CC[C@@H]1CNC(=O)OC(C)(C)C [Compound 31, (R)-((1-(6-((4-cyanopyridin-2-yl)amino)-3-methylpyridine-2-carbonyl)-5,5-difluoropiperidin-2-yl)methyl)t-butyl carbamate]
780	11.6	305	1390		Cc1ccc(Nc2cc(OC(F)(F)F)ccn2)nc1C(=O)N1CC(F)(F)CC[C@@H]1CNS(C)(=O)=O [Compound 32, (R)—N-((5,5-difluoro-1-(3-methyl-6-((4-(trifluoromethoxy)pyridin-2-yl)amino)pyridine-2-carbonyl)piperidin-2-yl)methyl)methanesulfonamide]
> 10000	38	1420			Cc1ccc(Nc2cc(OC(F)(F)F)ccn2)nc1C(=O)N1CC(F)(F)CC[C@@H]1CNC(=O)OC(C)(C)C [Compound 33, (R)-((5,5-difluoro-1-(3-methyl-6-((4-(trifluoromethoxy)pyridin-2-yl)amino)pyridine-2-carbonyl)piperidin-2-yl)methyl)t-butyl carbamate]
> 10000	5	6840	> 10000		CCOc1ccnc(Nc2ccc(C)c(C(=O)N3CC(F)(F)CC[C@@H]3CNC(C)=O)n2)c1 [Compound 35, (R)—N-((1-(6-((4-ethoxypyridin-2-yl)amino)-3-methylpyridine-2-carbonyl)-5,5-difluoropiperidin-2-yl)methyl)acetamide]
> 10000	231	> 10000			CCOc1ccnc(Nc2ccc(C)c(C(=O)N3CC(F)(F)CC[C@@H]3CNC(=O)OC(C)(C)C)n2)c1 [Compound 36, (R)-((1-(6-((4-ethoxypyridin-2-yl)amino)-3-methylpyridine-2-carbonyl)-5,5-difluoropiperidin-2-yl)methyl)t-butyl carbamate]
> 10000	245	9260			Cc1ccc(Nc2cc(OC(F)(F)F)ccn2)nc1C(=O)N1CCCC[C@@H]1CNC(=O)OC(C)(C)C [Compound 41, (R)-((1-(3-methyl-6-((4-(trifluoromethoxy)pyridin-2-yl)amino)pyridine-2-carbonyl)piperidin-2-yl)methyl)t-butyl carbamate]
	86.9	770	4120		Cc1ccc(Nc2cc(OC(F)(F)F)ccn2)nc1C(=O)N1CCCN2CCCC2C1 (stereo not shown) [Compound 46, (Hexahydro-1H-pyrrolo[1,2-a][1,4]diazepin-2-2(3H)-yl)(3-methyl-6-((4-(trifluoromethoxy)pyridin-2-yl)amino)pyridin-2-yl)methanone]
	119	844		938	Cc1ccc(Nc2cc(OC(F)(F)F)ccn2)nc1C(=O)N1CC(F)(F)CCC1C(=O)N1CCCC1 (stereo not shown) [Compound 47, (5,5-Difluoro-1-(3-methyl-6-((4-(trifluoromethoxy)pyridin-2-yl)amino)pyridine-2-carbonyl)piperidin-2-yl)(pyrrolidin-1-yl)methanone]
	16.4	2870		683	Cc1ccc(Nc2cc(OC(F)(F)F)ccn2)nc1C(=O)N1CC(F)(F)CC[C@@H]1CN1CCCC1=O [Compound 48, (R)-1-((5,5-difluoro-1-(3-methyl-6-((4-(trifluoromethoxy)pyridin-2-yl)amino)pyridine-2-carbonyl)piperidin-2-yl)methyl)pyrrolidinone-2-one]
	7.7	1270		112	Cc1ccc(Nc2cc(OC(F)(F)F)ccn2)nc1C(=O)N1CC(F)(F)CC[C@@H]1CNC(=O)C1CC1 [Compound 51, (R)—N-((5,5-difluoro-1-(3-methyl-6-((4-(trifluoromethoxy)pyridin-2-yl)amino)pyridine-2-carbonyl)piperidin-2-yl)methyl)cyclopropanecarboxamide]
	19.7	> 10000	> 10000		CCOc1ccnc(Nc2ccc(C)c(C(=O)N3CC(F)(F)CC[C@@H]3CNC(=O)OC)n2)c1 [Compound 53, (R)-((1-(6-((4-ethoxypyridin-2-yl)amino)-3-methylpyridine-2-carbonyl)-5,5-difluoropiperidin-2-yl)methyl)methyl carbamate]
	265	> 10000	> 10000		CC(=O)NC[C@H]1CCC(F)(F)CN1C(=O)c1cc(Nc2cc(OC(F)(F)F)ccn2)ccc1C [Compound 68, (R)—N-((5,5-difluoro-1-(2-methyl-5-((4-(trifluoromethoxy)pyridin-2-yl)amino)benzoyl)piperidin-2-yl)methyl)acetamide]
